Results on 17 compounds are retold here after US20040062729A1, “Photoprotective sunscreen compositions comprising 1,3,5-triazine compounds and triesters of benenetricarboxylic acids” (SOCIETE L'OREAL S.A., priority 2001, published 2004).

The conditions of this data set: 5 g 2,4-bis{[4-2-ethylhexyl-oxy)]-2-hydroxy]phenyl}-6-(4-methoxyphenyl)-1,3,5-triazine in 20 g solvent oil, heated to 83° C., cooled.

Description: The solubilization time of 2,4-bis{[4-2-ethylhexyl-oxy)]-2-hydroxy]phenyl}-6-(4-methoxyphenyl)-1,3,5-triazine (screening agent) in various solvents is determined by means of the following test:
at room temperature, 20 g of solvent are added to 5 g of screening agent,
the mixture thus obtained is heated to 83° C. by means of a water bath,
after cooling, the possible presence of crystals is then observed under a microscope, between a slide and glass coverslips, in polarized light.

`CCCCCCCCCCCCCCCC(=O)OCC(CC)CCCC` (stereo not shown) [2-Ethylhexyl palmitate]: the “Presence of crystals, storage in the cold (+4° C.) for 4 days” value (“Presence of crystals … (+4° C.) for 4 days” below) is “Crystals” and the “Presence of crystals, storage at room temperature for 4 days” value (“Presence … at room temperature for 4 days” below) is reported as “Crystals”.

With `CCCCCCCCC(CCCCCC)C(=O)O` (stereo not shown) [2-Hexyldecanoic acid], the “Presence of crystals … (+4° C.) for 4 days” value is “Crystals” and the “Presence … at room temperature for 4 days” value was “Crystals”.

In the case of `CCCCCCCCCCC(CO)CCCCCCCC` (stereo not shown) [2-Octyldodecanol], the “Presence of crystals … (+4° C.) for 4 days” value is “Crystals” and the “Presence … at room temperature for 4 days” value is reported as “Crystals”.

Take `C[Si]1(C)O[Si](C)(C)O[Si](C)(C)O[Si](C)(C)O[Si](C)(C)O1` [Cyclopentadimethylsiloxane]: the “Presence of crystals … (+4° C.) for 4 days” value was “Crystals” and the “Presence … at room temperature for 4 days” value is “Crystals”.

In the case of `CCCCC(CC)COC(=O)CCCCC(=O)OCC(CC)CCCC` (stereo not shown) [Di(2-ethylhexyl) adipate], the “Presence of crystals … (+4° C.) for 4 days” value is on record as “Crystals” and the “Presence … at room temperature for 4 days” value was “Crystals”.

With `CO[C@H]1CO[C@H]2[C@@H]1OC[C@H]2OC` [Dimethyl isosorbide], the “Presence of crystals … (+4° C.) for 4 days” value was “Crystals” and the “Presence … at room temperature for 4 days” value is recorded as “Crystals”.

As for `CCCCCCCCOC(=O)CC(O)C(=O)OCCCCCCCC` (stereo not shown) [Dioctyl malate], the “Presence of crystals … (+4° C.) for 4 days” value is reported as “Crystals” and the “Presence … at room temperature for 4 days” value is on record as “Crystals”.

Turning to `CC(CC(=O)OCC(COC(=O)CC(C)CC(C)(C)C)OC(=O)CC(C)CC(C)(C)C)CC(C)(C)C` (stereo not shown) [Glyceryl triisononanoate], the “Presence of crystals … (+4° C.) for 4 days” value is “Crystals” and the “Presence … at room temperature for 4 days” value is “Crystals”.

In the case of `CCCCCCCCC(CO)CCCCCC` (stereo not shown) [Isocetyl alcohol, 2-hexyldecanol], the “Presence of crystals … (+4° C.) for 4 days” value is on record as “Crystals” and the “Presence … at room temperature for 4 days” value is reported as “Crystals”.

For the compound `CC(C)CCCCCCCOC(=O)C(C)(C)C` [Isodecyl neopentanoate], the “Presence of crystals … (+4° C.) for 4 days” value is given as “Crystals” and the “Presence … at room temperature for 4 days” value is listed as “Crystals”.

`CCCCCCCCCCCCCC(C)C` [Isohexadecane]: the “Presence of crystals … (+4° C.) for 4 days” value is recorded as “Crystals” and the “Presence … at room temperature for 4 days” value is “Crystals/Cloudy”.

Regarding `CC(C)CCCCCCOC(=O)CCCCCC(C)C` [Isononyl isononanoate], the “Presence of crystals … (+4° C.) for 4 days” value was “Crystals” and the “Presence … at room temperature for 4 days” value is given as “Crystals”.

As for `CCCCC(CC)C(=O)OCC(C)(C)COC(=O)C(CC)CCCC` (stereo not shown) [Neopentyl glycol di-2-ethylhexanoate], the “Presence of crystals … (+4° C.) for 4 days” value is listed as “Crystals” and the “Presence … at room temperature for 4 days” value is listed as “Crystals”.

On to `CCCCCCCC/C=C\CCCCCCCCO` [Oleyl alcohol], for which the “Presence of crystals … (+4° C.) for 4 days” value was “Crystals” and the “Presence … at room temperature for 4 days” value is listed as “Crystals”.

Take Oxypropylenated butanediol (10 PO): the “Presence of crystals … (+4° C.) for 4 days” value was “Crystals” and the “Presence … at room temperature for 4 days” value was “Crystals”.

Regarding Oxypropylenated stearyl alcohol, the “Presence of crystals … (+4° C.) for 4 days” value is on record as “Crystals” and the “Presence … at room temperature for 4 days” value is recorded as “Crystals”.

With Tridecyl trimellitate, the “Presence of crystals … (+4° C.) for 4 days” value is “Absence of” and the “Presence … at room temperature for 4 days” value is “Absence of”.
